Values quoted from earlier work as cited in patent US20100119576A1, “USE OF ONE OR MORE OF THE ELEMENTS FROM THE GROUP YTTRIUM, NEODYMIUM AND ZIRCONIUM, AND PHARMACEUTICAL COMPOSITIONS WHICH CONTAIN THOSE ELEMENTS” (BIOTRONIK VI PATENT AG, priority 2002, published 2010).

Test system: Klebsiella pneumoniae strain 204 and K9
Settings: 142 mM Y(OH)3

Compound: [OH-].[OH-].[OH-].[Y+3] [Y(OH)3]
- proliferation of K. pneumoniae: increased proliferation
